# Results: patent US6071884A, “Pharmaceutical compositions and therapeutic methods” (Kirin Beer Kabushiki Kaisha, priority 1992, dated 2000)
# What was measured:
# [1] = test system: marrow cells (mononuclear cell fraction); experiment: Proliferation-stimulating effect on marrow cell of mouse (3H-TdR uptake); assay type: cell-based, mouse (BALB/c); settings: percentage of control, 72 h
# Method in brief: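 Mononuclear marrow cell fraction from 7-week-old female BALB/c mouse thigh bone, 1.5×10^6 cells/ml in 10% FCS RPMI 1640, cultured with test sample 72 h at 37° C. ³H-thymidine (0.5 μCi/well) then added for 8 h; nuclear ³H-TdR uptake counted by liquid scintillation.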
# [2] = test system: marrow cells (mononuclear cell fraction); experiment: Effect on marrow cell of monkey (3H-TdR uptake); assay type: cell-based, croo monkey; settings: Primates, 96 h, percentage of control, 4 days
# Protocol: Pharmacological Test 2: Effect on Marrow Cell of Monkey
# Marrow cells were prepared from the humerus of a croo monkey, and an MNF obtained by fractionation using a Lymphoprep (Nycomed Pharma AS, Oslo, Norway) was used in the following experiment.
# The MNF was suspended in an RPMI 1640 medium added with 10% blood plasma of a croo monkey to make its concentration 1×10^6 cells/ml.
# 10 μl/well of a sample with a predetermined concentration and 100 μl/well of the above-prepared MNF were placed on a round-bottomed 96 well plate, and incubated under the conditions of 37° C. and 5% CO2 for 4 days. Thereafter, 0.5 μCi/well of ^3 H-TdR was added. After 6 hours, the cells were harvested, and the amount of the ^3 H-TdR taken in the nuclei was measured by a liquid scintillation counter.
# blood platelets [3] = experiment: Thrombocytopenia-inhibiting effect in X-ray-irradiated mice; assay type: in vivo, mouse (BDF1); settings: 10 days after 5 Gy X-ray; 0.1 mg/kg i.v. within 2 h; mean ± SD; vehicle per series 10.3, 6.8, 6.7; non-treatment 68.2, 96.9, 73.0
# Method in brief: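 Female BDF1 mice, 6 weeks old, six per group, given 5 Gy whole-body X-ray, then 0.1 mg/kg i.v. via tail vein within 2 hours. Platelets counted by hemocytometer in fundus-vein blood 10 days later; untreated and vehicle groups run alongside.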
# blood platelets [4] = experiment: Blood-platelet-increasing effect upon monkey; assay type: in vivo, croo monkey; settings: for Number of Blood Platelets: mean ± SD
# Protocol: Subsequently, in order to examine the effect on Primates, the effect of Compound 33 was examined as a representative of the compounds represented by the formula (A), by using normal croo monkeys.
# (§1) Pharmacological Test 7: Blood-Platelet-Increasing Effect upon Monkey
# (§2) Six croo monkeys (female, 3 to 5 years old, 2.3 to 2.8 kg), 2 monkeys in one group were used. A vehicle, 0.1 mg/body of the compound 33 or 1 mg/body of the compound 33 was intravenously administered to the monkeys. 6 and 9 days after the administration, blood was collected by using a blood-collecting tube EDTA-2K, and the numbers of blood platelets, white blood cells and red blood cells contained in the peripheral blood were measured by using an E-2500/cs. The results are shown in Tables 7-1, 7-2 and 7-3, respectively.
# white blood cells = experiment: White blood cell count in monkey; assay type: in vivo, croo monkey; settings: for Number of White Blood Cells: mean ± SD
# Protocol: as §1, §2
# red blood cells = experiment: Red blood cell count in monkey; assay type: in vivo, croo monkey; settings: for Number of Red Blood Cells: mean ± SD
# Protocol: as §1, §2
# [5] = Observation of body weight and general condition in monkey; assay type: in vivo, croo monkey; settings: 1 mg/body i.v.; until 10 days after administration
# Acute toxicity = assay type: in vivo; settings: 7 days
# Protocol: Test Example 2: Acute Toxicity
# 0.1, 1.0 or 10 mg/kg of Compound 5 or 33 was intravenously administered to Crj:CD rats (male, 5 weeks old), 6 rats in one group. 7 days after the administration, a toxicity test was carried out.
compound,measurement,setting,value
"CCCCCCCCCCCCCCCCCCCCCCCCCC(=O)N[C@@H](CO[C@H]1O[C@H](CO)[C@H](O)[C@H](O)[C@H]1O)[C@H](O)[C@H](O)CCCCCCCCCCCCCC [Compound 33, (2S,3S,4R)-1-(α-D-galactopyranosyloxy)-2-hexacosanoylamino-3,4-octadecanediol]",activity at 0.1 µg/mL,[1]; 10^-1 μg/ml,460%
same,activity at 0.01 µg/mL,[1]; 10^-2 μg/ml,330%
same,activity at 0.001 µg/mL,[1]; 10^-3 μg/ml,175%
same,activity at 0.1 µg/mL,[2]; 10^-1 μg/ml,177%
same,activity at 0.01 µg/mL,[2]; 10^-2 μg/ml,194%
same,Number of Blood Platelets,blood platelets [3],23.9 ± 6.5 × 10^4 /μl
same,Number of Blood Platelets,"blood platelets [4]; 0.1 mg/body i.v., after 6 days, vehicle 37.8 ± 8.5",56.4 ± 5.2 × 10^4 /μl
same,Number of Blood Platelets,"blood platelets [4]; 0.1 mg/body i.v., after 9 days, vehicle 37.4 ± 12.4",52.4 ± 9.0 × 10^4 /μl
same,blood-platelet-increasing effect (in words),"blood platelets [4]; 0.1 mg/body, almost equal to 1 mg/body",remarkable blood-platelet-increasing effect
same,Number of Blood Platelets,"blood platelets [4]; 1 mg/body i.v., after 6 days, vehicle 37.8 ± 8.5",62.1 ± 15.9 × 10^4 /μl
same,Number of Blood Platelets,"blood platelets [4]; 1 mg/body i.v., after 9 days, vehicle 37.4 ± 12.4",64.7 ± 23.7 × 10^4 /μl
same,Number of White Blood Cells,"white blood cells; 0.1 mg/body i.v., after 6 days, vehicle 91 ± 31",156 ± 1 × 10^2 /μl
same,Number of White Blood Cells,"white blood cells; 0.1 mg/body i.v., after 9 days, vehicle 94 ± 57",105 ± 15 × 10^2 /μl
same,white-blood-cell-increasing effect (in words),"white blood cells; 0.1 mg/body, 6 days after administration, equal to 1 mg/body",remarkable white-blood-cell-increasing effect
same,Number of White Blood Cells,"white blood cells; 1 mg/body i.v., after 6 days, vehicle 91 ± 31",150 ± 37 × 10^2 /μl
same,Number of White Blood Cells,"white blood cells; 1 mg/body i.v., after 9 days, vehicle 94 ± 57",169 ± 21 × 10^2 /μl
same,Number of Red Blood Cells,"red blood cells; 0.1 mg/body i.v., after 6 days, vehicle 516 ± 6",498 ± 18 × 10^4 /μl
same,Number of Red Blood Cells,"red blood cells; 0.1 mg/body i.v., after 9 days, vehicle 506 ± 1",538 ± 2 × 10^4 /μl
same,red-blood-cell-increasing effect (in words),"red blood cells; 0.1 mg/body, 9 days after administration",red-blood-cell-increasing effect was clearly found
same,Number of Red Blood Cells,"red blood cells; 1 mg/body i.v., after 6 days, vehicle 516 ± 6",569 ± 40 × 10^4 /μl
same,Number of Red Blood Cells,"red blood cells; 1 mg/body i.v., after 9 days, vehicle 506 ± 1",574 ± 37 × 10^4 /μl
same,abnormality in body weight and in general condition,[5],no abnormality in body weight and in general condition was found
same,death of rats,Acute toxicity; 10 mg/kg i.v.,the rats did not die
same,post-mortem examination,"Acute toxicity; i.v. 0.1, 1.0 or 10 mg/kg",no abnormality was found
same,LD50 at 168 h,"Acute toxicity; rat, in vivo, iv, male rats",≥ 10 mg/kg
